Data on 6 molecules can be found in patent US4137313A, “2,5-Dihydro-1,2-thiazino(5,6-b)indole-3-carboxamide-1,1-dioxides and salts thereof” (Boehringer Ingelheim GmbH, priority 1977, dated 1979).

Series [1] relates to platelet aggregation in platelet-enriched plasma of healthy humans. In words: BORN-Test, collagen-induced platelet aggregation. It is filed as cell-based. To be noted: Homo sapiens, vs control, read-out: % decrease in aggregation; for inhibition at 20 µM: 2 × 10^-5 Mol/liter; for inhibition at 2 µM: 2 × 10^-6 Mol/liter; for inhibition at 100 µM: 1 × 10^-4 Mol/liter; for inhibition at 10 µM: 1 × 10^-5 Mol/liter. The procedure: (a) BORN-Test, Collagen-Induced Aggregation
The platelet aggregation was measured according to the method of BORN and CROSS (J. Physiol. 170, pp. 397 [1964]) in platelet-enriched plasma of healthy humans. The decrease in the optical density of the platelet suspension after addition of collagen was measured and registered photometrically. From the angle of inclination of the density curve the rate of aggregation can be determined. […] The quantity of collagen was chosen so that it produced an irreversible control curve.
The indicated values refer to the optical density and signify the percentage change in the light transmission (=% decrease in aggregation) under the influence of the test compound in comparision to the control.
Commercial collagen manufactured by Hormon-Chemie, Munich, Germany, was used.

In a further series the test system is male and female mice. In words: Determination of acute toxicity, oral administration. To be noted: 1 000 mgm/kg oral, 10 mice; for Dead animals within observation period 1 day: within 1 day; for Dead animals within observation period 7 days: within 7 days; for Dead animals within observation period 14 days: within 14 days. Type of series: in vivo. The procedure: (b) Determination of Acute Toxicity
The acute toxicity was determined in male and female mice after oral administration of the test compound as a suspension in tylose.

Take `Cc1csc(NC(=O)C2=C(O)c3c(c4ccccc4n3C)S(=O)(=O)N2C)n1` [B, 2,5-dihydro-2,5-dimethyl-4-hydroxy-N-(4-methyl-2-thiazolyl)-1,2-thiazino[5,6-b]indole-3-carboxamide-1,1-dioxide]: in series [1], the inhibition at 20 µM was 100% and the inhibition at 2 µM turned out to be 97%. The inhibition at 0.2 µM in series [1] (2 × 10^-7 Mol/liter) was determined as 42%. In addition, in the series with male and female mice, the “Dead animals within observation period 1 day” value amounted to 0, the “Dead animals within observation period 7 days” value stood at 0 and the “Dead animals within observation period 14 days” value is 0.
With `CN1C(C(=O)Nc2nccs2)=C(O)c2c(c3ccccc3n2C)S1(=O)=O` [A, 2,5-dihydro-2,5-dimethyl-4-hydroxy-N-(2-thiazolyl)-1,2-thiazino[5,6-b]indole-3-carboxamide-1,1-dioxide], in series [1], the inhibition at 20 µM amounted to 96% and the inhibition at 2 µM came out at 81%. In the series with male and female mice, the “Dead animals within observation period 1 day” value turned out to be 0, the “Dead animals within observation period 7 days” value amounted to 0 and the “Dead animals within observation period 14 days” value was 0.
As for `COc1ccc2c(c1)c1c(n2C)C(O)=C(C(=O)Nc2ccccn2)N(C)S1(=O)=O` [F, 2,5-dihydro-2,5-dimethyl-4-hydroxy-8-methoxy-N-(2-pyridyl)-1,2-thiazino[5,6-b]indole-3-carboxamide-1,1-dioxide], in series [1], the inhibition at 100 µM is 85% and the inhibition at 10 µM was 43%.
Consider `CN1C(C(=O)Nc2nccs2)=C(O)c2c(c3cc(Cl)ccc3n2C)S1(=O)=O` [E, 8-chloro-2,5-dihydro-2,5-dimethyl-4-hydroxy-N-(2-thiazolyl)-1,2-thiazino[5,6-b]indole-3-carboxamide-1,1-dioxide], for which, in series [1], the inhibition at 100 µM came out at 100% and the inhibition at 10 µM amounted to 86%. Further, in series [1] (1 × 10^-6 Mol/liter), the inhibition at 1 µM was 27%. Also, in the series on male and female mice, the “Dead animals within observation period 1 day” value is given as 0, the “Dead animals within observation period 7 days” value is given as 0 and the “Dead animals within observation period 14 days” value amounted to 0.
Take `Cc1cccc(NC(=O)C2=C(O)c3c(c4ccccc4n3C)S(=O)(=O)N2C)n1` [D, 2,5-dihydro-2,5-dimethyl-4-hydroxy-N-(6-methyl-2-pyridyl)-1,2-thiazino[5,6-b]indole-3-carboxamide-1,1-dioxide]: in series [1] (5 × 10^-5 Mol/liter), the inhibition at 50 µM came out at 86%. The inhibition at 5 µM in series [1] (5 × 10^-6 Mol/liter) stood at 60%. In the series with male and female mice, the “Dead animals within observation period 1 day” value is listed as 0, the “Dead animals within observation period 7 days” value is given as 0 and the “Dead animals within observation period 14 days” value stood at 0.
Take `Cc1nc(NC(=O)C2=C(O)c3c(c4ccccc4n3C)S(=O)(=O)N2C)sc1C` [C, 2,5-dihydro-2,5-dimethyl-N-(4,5-dimethyl-2-thiazolyl)-4-hydroxy-1,2-thiazino[5,6-b]indole-3-carboxamide-1,1-dioxide]: in series [1], the inhibition at 20 µM turned out to be 89% and the inhibition at 2 µM is 82%.
